Data taken from ChEMBL document CHEMBL1147583, “Respiratory syncytial virus inhibitors. Part 2: Benzimidazol-2-one derivatives” (Bioorg Med Chem Lett, 2004).

Columns and labels:
[1] = Therapeutic index expressed as the ratio between CC50 and EC50; type: cell-based; conditions: human, HEp-2 cells; read-out: Therapeutic index
[2] = test system: HEp-2; experiment: Antiviral activity against respiratory syncytial virus in HEp-2 human […] epithelial carcinoma cell line; type: functional, cell-based
[3] = test system: HEp-2; experiment: Cytotoxic activity against uninfected HEp-2 human […] epithelial carcinoma cell line; type: functional

| SMILES | selectivity ratio [1] | EC50 [2] [nM] | CC50 [3] [nM] |
| --- | --- | --- | --- |
| CC(C)CCn1c(Cn2c(=O)n(S(C)(=O)=O)c3ccccc32)nc2ccccc21 | 2330 | 7 | 16300 |
| CCOC(=O)n1c(=O)n(Cc2nc3ccccc3n2CCC(C)C)c2ccccc21 | 193 | 298 | 57700 |
| C=C(C)n1c(=O)n(Cc2nc3ccccc3n2CCCS(C)(=O)=O)c2ccccc21 | 4110 | 30 | 123000 |
| CC(C)CCn1c(Cn2c(=O)n(C(N)=O)c3ccccc32)nc2ccccc21 | 2670 | 50 | 134000 |
| CC(C)n1c(=O)n(Cc2nc3ccccc3n2CCCCCCC#N)c2ccccc21 | > 37800 | 5 | > 189000 |
| C=C(C)n1c(=O)n(Cc2nc3ccccc3n2CCCCCCC#N)c2ccccc21 | > 6000 | 6 | 36000 |
| CC(=O)CCn1c(Cn2c(O)nc3ccccc32)nc2ccccc21 | 1560 | 191 | 299000 |
| C=CCn1c(=O)n(Cc2nc3ccccc3n2CCC(C)C)c2ccccc21 | 800 | 16 | 12800 |
| C=C(C)n1c(=O)n(Cc2nc3ccccc3n2CCCC#N)c2ccccc21 | – | 5 | – |
| C=C(C)n1c(=O)n(Cc2nc3ccccc3n2CCCCC#N)c2ccccc21 | 7140 | 27 | 193000 |
| CC1(CCn2c(Cn3c(=O)n(Cc4ccc(O)cc4)c4ccccc43)nc3ccccc32)N=N1 | > 28000 | 4 | > 220000 |
| CC(=O)n1c(=O)n(Cc2nc3ccccc3n2CCC(C)C)c2ccccc21 | 162 | 710 | 116000 |
| N#CCCn1c(Cn2c(=O)n(-c3ccccc3)c3ccccc32)nc2ccccc21 | 17400 | 5 | 87000 |
| CCn1c(=O)n(Cc2nc3ccccc3n2CCCCO)c2ccccc21 | 11000 | 14 | 154000 |
| CS(=O)(=O)CCCn1c(Cn2c(O)nc3ccccc32)nc2ccccc21 | 144 | 1490 | 216000 |
| CC(C)CCn1c(Cn2c(O)nc3ccccc32)nc2ccccc21 | 1070 | 57 | 61100 |
| N#CCCn1c(Cn2c(O)nc3ccccc32)nc2ccccc21 | > 3130 | 99 | > 310000 |
| CCn1c(=O)n(Cc2nc3ccccc3n2CCO)c2ccccc21 | 279 | 229 | 64100 |
| C=C(C)n1c(=O)n(Cc2nc3ccccc3n2CCCCCCO)c2ccccc21 | > 2170 | 114 | > 247000 |
| CC(C)CCn1c(Cn2c(=O)n(S(=O)(=O)N(C)C)c3ccccc32)nc2ccccc21 | 437 | 62 | 27100 |
| CC(C)CCn1c(Cn2c(=O)n(Cc3ccc(O)cc3)c3ccccc32)nc2ccccc21 | 3330 | 18 | 59900 |
| N#Cc1ccc(Cn2c(=O)n(Cc3nc4ccccc4n3CCCCO)c3ccccc32)cc1 | 739 | 53 | 39200 |
| N#CCCCCn1c(=O)n(Cc2nc3ccccc3n2CCCC#N)c2ccccc21 | > 9090 | 25 | > 242000 |
| CC(C)CCn1c(Cn2c(=O)n(Cc3ccc(C#N)cc3)c3ccccc32)nc2ccccc21 | 465 | 12 | 5590 |
| CC(C)CCn1c(Cn2c(=O)n(C(=O)NCc3ccccc3)c3ccccc32)nc2ccccc21 | 74 | 86 | 6440 |
| CC(C)n1c(=O)n(Cc2nc3ccccc3n2CCCCO)c2ccccc21 | 6210 | 11 | 68300 |
| CCn1c(=O)n(Cc2nc3ccccc3n2CC(=O)c2ccccc2)c2ccccc21 | 241 | 112 | 27100 |

| SMILES | selectivity ratio [1] | EC50 [2] [nM] | CC50 [3] [nM] |
| --- | --- | --- | --- |
| C=C(C)n1c(=O)n(Cc2nc3ccccc3n2CCC(C)=O)c2ccccc21 | 48900 | 5 | 245000 |
| CCn1c(=O)n(Cc2nc3ccccc3n2CCCO)c2ccccc21 | 17900 | 10 | 179000 |
| CCn1c(=O)n(Cc2nc3ccccc3n2CC(O)c2ccccc2)c2ccccc21 (configuration not stated) | > 6500 | 37 | > 241000 |
| CCn1c(=O)n(Cc2nc3ccccc3n2CCC(C)C)c2ccccc21 | 1690 | 11 | 18600 |
| CS(=O)(=O)CCCn1c(Cn2c(=O)n(CCCCC#N)c3ccccc32)nc2ccccc21 | > 3020 | 71 | > 214000 |
| CC(C)CCn1c(Cn2c(=O)n(Cc3ccc(S(C)(=O)=O)cc3)c3ccccc32)nc2ccccc21 | 833 | 9 | 7500 |
| C=C(C)n1c(=O)n(Cc2nc3ccccc3[nH]2)c2ccccc21 | 38 | 750 | 28400 |
| CC(C)CCn1c(Cn2c(=O)n(S(=O)(=O)C(C)C)c3ccccc32)nc2ccccc21 | 260 | 65 | 16900 |
| OCCCCn1c(Cn2c(O)nc3ccccc32)nc2ccccc21 | > 971 | 173 | > 168000 |
| CC(C)CCn1c(Cn2c(=O)n(CCCC#N)c3ccccc32)nc2ccccc21 | 1490 | 40 | 59600 |
| CC(C)CCn1c(Cn2c(=O)n(CCCCCC#N)c3ccccc32)nc2ccccc21 | 536 | 25 | 13400 |
| CC(C)CCn1c(Cn2c(=O)n(CCCCC#N)c3ccccc32)nc2ccccc21 | 428 | 35 | 15000 |
| C=C(C)n1c(=O)n(Cc2nc3ccccc3n2CCC(C)C)c2ccccc21 | 6180 | 4 | 24700 |
| C=C(C)n1c(=O)n(Cc2nc3ccccc3n2CCCCCC#N)c2ccccc21 | 946 | 13 | 12300 |
| C=C(C)n1c(=O)n(Cc2nc3ccccc3n2CCCCO)c2ccccc21 | 42700 | 4 | 171000 |
| C=C(C)n1c(=O)n(Cc2nc3ccccc3n2CCC(C)O)c2ccccc21 (configuration not stated) | 6130 | 28 | 172000 |
| CC(C)CCn1c(Cn2c(=O)n(Cc3ccc(C(=O)N(C)C)cc3)c3ccccc32)nc2ccccc21 | 1270 | 21 | 26600 |
| CC(C)CCn1c(Cn2c(=O)n(Cc3cc(I)c(O)c(I)c3)c3ccccc32)nc2ccccc21 | > 209 | 686 | > 144000 |
| C=C(C)n1c(=O)n(Cc2nc3ccccc3n2CCC#N)c2ccccc21 | 5310 | 15 | 79600 |
| CCNC(=O)n1c(=O)n(Cc2nc3ccccc3n2CCC(C)C)c2ccccc21 | 359 | 52 | 18700 |
| CC1(CCn2c(Cn3c(=O)n(Cc4cc(I)c(O)c(I)c4)c4ccccc43)nc3ccccc32)N=N1 | 713 | 38 | 27100 |
| CS(=O)(=O)CCCn1c(Cn2c(=O)n(CCCCO)c3ccccc32)nc2ccccc21 | > 2490 | 92 | > 229000 |
| CC(C)CCn1c(Cn2c(=O)n(C(=O)Nc3ccccc3)c3ccccc32)nc2ccccc21 | 526 | 41 | 21600 |
| CC(C)n1c(=O)n(Cc2nc3ccccc3n2CCC#N)c2ccccc21 | 9190 | 8 | 73500 |
| CC(C)CCn1c(Cn2c(=O)n(CC#N)c3ccccc32)nc2ccccc21 | 1670 | 28 | 46800 |
| CC(O)CCn1c(Cn2c(O)nc3ccccc32)nc2ccccc21 (configuration not stated) | > 629 | 416 | > 262000 |
